Test results published in patent publication US20260035338A1, “AMINO LIPID COMPOUND AND LIPID NANOPARTICLE FOR DELIVERING BIOACTIVE INGREDIENT” (SHENZHEN SHENXIN BIOTECHNOLOGY CO., LTD., priority 2022, published 2026).

System: BALB/c mice
Experiment: In vivo delivery of Fluc mRNA-encapsulating LNP formulations, luciferase signal by In Vivo Imaging System (IVIS)
Details: tail vein injection (IV) 70 μL, female BALB/c mice, 6 hours after injection; for Average number of photons (Total in-vivo flux): LNP formulation encapsulating Fluc mRNA (Lipid:DSPC:CHO-HP:M-DMG-2000 48:10:40.5:1.5); for Average number of photons (Liver) / Average number of photons (Spleen): LNP formulation encapsulating Fluc mRNA
Experimental: Animal preparation: Female BALB/c mice of 6-8 weeks old were selected and raised in an SPF grade breeding room. Animal testing was conducted in strict accordance with the guidelines of national health institutions and animal ethics requirements.
In vivo Delivery: prior to injection of the test LNP formulation, the LNP formulation was gently and repeatedly inverted to thoroughly mix the sample of the formulation. A corresponding amount of the LNP formulation was aspirated with a 1 ml insulin syringe, and the LNP formulation was injected by tail vein injection (IV), with 3 mice in duplicate per formulation. Each mouse was injected with 70 μL of the corresponding LNP formulation encapsulating the luciferase mRNA (Fluc mRNA) prepared in Experimental Example 1.
6 hours after injection of LNP formulations, mice were injected with 200 μL D-Luciferin luciferase developing substrate (Catalog No. 122799; Manufacturer: Perkin Elmer). After the substrate was injected, the mice were anesthetized with isoflurane inhalation, and the injection time of luciferase developing substrate was recorded.
The encapsulation efficiency of the lipid nanoparticle encapsulating luciferase mRNA (Fluc mRNA) with a representative amino lipid compound and the fluorescence expression intensity induced by the same are shown in Table 4, with the LNP formulation containing SM-102, 1001 or ALC-0315 as a control LNP formulation. The preparation method of the control LNP formulation was basically the same as that of the LNP formulations in Experimental Example 1, with the difference lying in that the amino lipid compounds of the present disclosure were replaced with SM-102, 1001 or ALC-0315 in the preparation of the control LNP formulation.

Row | SMILES | Average number of photons (Total in-vivo flux) | Average number of photons (Liver) | Average number of photons (Spleen)
1 | CCC/C=C\COC(CCCOC(=O)CCCCCCCCC(CCCCCCCCC(=O)OCCCC(OC/C=C\CCC)OC/C=C\CCC)OC(=O)OCCCN(CC)CC)OC/C=C\CCC [compound 392] | 8.20E+07 | 1.50E+07 | 6.65E+05
2 | CCCCCCOC(CCCOC(=O)CCCCCCCCC(CCCCCCCCC(=O)OCCCC(OCCCCCC)OCCCCCC)NC(=O)OCCCN(CC)CC)OCCCCCC [compound 393] | 2.80E+08 | 5.44E+07 | 1.00E+07
3 | CCCCCCCCOC(CCCOC(=O)CCCCCCCCC(CCCCCCCCC(=O)OCCCC(OCCCCCCCC)OCCCCCCCC)OC(=O)OCCCN(CC)CC)OCCCCCCCC [compound 859] | 2.31E+07 | 3.71E+06 | 7.21E+04
4 | CCCCCCCOC(CCCOC(=O)CCCCCCCCC(CCCCCCCCC(=O)OCCCC(OCCCCCCC)OCCCCCCC)OC(=O)OCCCN(C)C)OCCCCCCC [compound 490] | 2.65E+07 | 3.68E+06 | 5.06E+05
5 | CCCCCCCCOC(CCCOC(=O)CCCCCCCCC(CCCCCCCCC(=O)OCCCC(OCCCCC)OCCCCC)OC(=O)OCCCN(CC)CC)OCCCCCCCC (stereo not drawn) [compound 863] | 4.43E+07 | 7.13E+06 | 2.88E+05
6 | CCCCCCCCOCCCC(=O)N(CCCN(C)C)C(CCCCCCCCC(=O)OCCCC(OCCCCCC)OCCCCCC)CCCCCCCCC(=O)OCCCC(OCCCCCC)OCCCCCC [compound 449] | 1.65E+08 | 2.94E+07 | 7.31E+06
7 | CCCCCCOCCCCOC(=O)CCCCCCCCC(CCCCCCCCC(=O)OCCCC(OCCCCCC)OCCCCCC)OC(=O)OCCCN(CC)CC (stereo not drawn) [compound 440] | 2.30E+08 | 3.22E+07 | 2.14E+06
8 | CCCCCCOC(CCC(=O)OCC(COC(=O)CCC(OCCCCCC)OCCCCCC)COC(=O)OCCCN(C)C)OCCCCCC [compound 2021] | 4.49E+06 | 1.19E+06 | 1.04E+06
9 | CCCCCCOC(CCCOC(=O)CCCCCCCCC(CCCCCCCCC(=O)OCCCC(OCCCCCC)OCCCCCC)N(CCCN(C)C)C(=O)COC)OCCCCCC [compound 450] | 4.38E+07 | 7.96E+05 | 3.18E+06
10 | CCCCCCOC(CCCOC(=O)CCCCCCCCC(CCCCCCCCC(=O)OCCCC(OCCCCCC)OCCCCCC)N(CCCN(C)C)C(=O)CCC)OCCCCCC [compound 452] | 3.27E+08 | 4.94E+07 | 2.22E+07
11 | CCCCCCCOC(CCCOC(=O)CCCCCCCCC(CCCCCCCCC(=O)OCCCC(OCCCCCCC)OCCCCCCC)OC(=O)N(CCCC(=O)OCCCCC)CCCN(C)C)OCCCCCCC [compound 381] | 2.46E+08 | 4.40E+07 | 1.96E+07
12 | CCCCCCOC(CCCOC(=O)CCCCCCCCC(CCCCCCCCC(=O)OCCCCCCCC(=O)OCC)OC(=O)OCCCN(CC)CC)OCCCCCC (stereo not drawn) [compound 436] | 2.50E+07 | 6.68E+06 | 5.08E+05
13 | CCCCCCOC(CCCOC(=O)CCCCCCCCC(CCCCCCCCC(=O)OCCCC(OCCCCCC)OCCCCCC)OC(=O)N(CCCC(=O)OCCCCC)CCCN(C)C)OCCCCCC [compound 380] | 4.05E+08 | 7.25E+07 | 6.79E+07
14 | CCCCCCC#CCCOC(=O)CCCCCCCOC(=O)CCCCCCCCC(CCCCCCCCC(=O)OCCCC(OCCCCCC)OCCCCCC)OC(=O)OCCCN(CC)CC (stereo not drawn) [compound 437] | 1.66E+07 | 2.66E+06 | 2.62E+06
15 | CCCCC/C=C\C/C=C\CCCCCCCC(=O)OCC(COCCCCC(OCCCCCCCC)OCCCCCCCC)COC(=O)OCCCN(CC)CC (stereo not drawn) [compound 1248] | 8.20E+07 | 1.79E+07 | 3.48E+06
16 | CCCCCCCCC(CCCCCC)C(=O)OCCCCCCN(CCCCO)CCCCCCOC(=O)C(CCCCCC)CCCCCCCC (stereo not drawn) [ALC-0315, reference compound] | 6.39E+08 | 1.23E+08 | 3.45E+06
17 | CCCCCCOC(CCCOC(=O)CCCCCCCCC(CCCCCCCCC(=O)OCCCC(OCCCCCC)OCCCCCC)OC(=O)OCC1CCCN(C)C1)OCCCCCC (stereo not drawn) [compound 416] | 2.16E+08 | 5.13E+07 | 3.99E+06
18 | CCCCCCCCOC(CCCOC(=O)CCCCCCCCC(CCCCCCCCCNC(=O)OCC(OCCCCCC)OCCCCCC)OC(=O)OCCCN(CC)CC)OCCCCCCCC (stereo not drawn) [compound 458] | 1.29E+08 | 2.69E+07 | 2.60E+06
19 | CCCCCCCCOC(CCCOC(=O)CCCCCCCCC(CCCCCCCCC(=O)OCCCC(OCCCCCCC)OCCCCCCC)OC(=O)OCCCN(CC)CC)OCCCCCCCC (stereo not drawn) [compound 868] | 3.04E+07 | 5.35E+06 | 1.74E+05
20 | CCCCCCOC(CCCOC(=O)OCCCCCCCCCC(CCCCCCCCCOC(=O)OCC(OCCCCCC)OCCCCCC)OC(=O)OCCCN(CC)CC)OCCCCCC (stereo not drawn) [compound 457] | 1.43E+07 | 1.55E+06 | 2.70E+06
21 | CCCCC/C=C\C/C=C\CCCCCCCC(=O)OCC(COC(=O)OCCCC(OCCCCCCCC)OCCCCCCCC)COC(=O)OCCCN(CC)CC (stereo not drawn) [compound 1246] | 4.92E+07 | 6.85E+06 | 3.83E+06
22 | CCCCCCOC(CCCCOC(=O)CCCCCCCCC(CCCCCCCCC(=O)OCCCCC(OCCCCCC)OCCCCCC)OC(=O)OCCCN(C)C)OCCCCCC [compound 2036] | 5.60E+07 | 1.04E+07 | 5.75E+05
23 | CCCCCCCOC(CCCOC(=O)CCCCCCCCC(CCCCCCCCC(=O)OCCCC(OCCCCC)OCCCCC)OC(=O)OCCCN(CC)CC)OCCCCCCC (stereo not drawn) [compound 862] | 8.57E+07 | 1.53E+07 | 6.67E+05
24 | CCCCCCCC#CCOC(CCCOC(=O)CCCCCCCCC(CCCCCCCCC(=O)OCCCCCCCCCCOC)OC(=O)OCCCN(CC)CC)OCC#CCCCCCCC (stereo not drawn) [compound 439] | 5.87E+07 | 1.25E+07 | 1.96E+06
25 | CCCCCCCCC(CCCCCCCC)OC(=O)CCCCCCCOC(=O)CCCCCCCCC(CCCCCCCCC(=O)OCCCC(OCCCCCC)OCCCCCC)OC(=O)OCCCN(CC)CC (stereo not drawn) [compound 434] | 2.50E+07 | 3.52E+06 | 1.40E+05
26 | CCCCCCCCCOC(CCCOC(=O)CCCCCCCCC(CCCCCCCCC(=O)OCCCC(OCCCCCC)OCCCCCC)OC(=O)OCCCN(CC)CC)OCCCCCCCCC (stereo not drawn) [compound 867] | 2.15E+07 | 4.12E+06 | 1.36E+05
27 | CCCCC/C=C\C/C=C\CCCCCCCC(=O)OCC(COC(=O)CCC(OCCCCCCCC)OCCCCCCCC)COC(=O)OCCCN(CC)CC (stereo not drawn) [compound 1001, reference compound] | 9.68E+07 | 9.38E+06 | 1.65E+07
28 | CCCCCCCCCOC(CCCOC(=O)CCCCCCCCC(CCCCCCCCC(=O)OCCCC(OCCCCCC)OCCCCCC)OC(=O)OCCCN(C)C)OCCCCCCCCC (stereo not drawn) [compound 856] | 3.40E+07 | 9.34E+06 | 3.58E+05
29 | CCCCCCOC(CCCOC(=O)CCCCCCCCC(CCCCCCCCC(=O)OCCCC(OCCCCCC)OCCCCCC)OC(=O)NCCCN1CCCCC1C)OCCCCCC (stereo not drawn) [compound 399] | 9.00E+07 | 1.96E+07 | 2.05E+06
30 | CCCCCCOC(CCCOC(=O)CCCCCCCCC(CCCCCCCCC(=O)OCCCC(OCCCCCC)OCCCCCC)N(CCCN(C)C)C(C)=O)OCCCCCC [compound 451] | 2.86E+07 | 4.63E+06 | 1.74E+07
